Results taken from BindingDB's records for doi:10.1016/j.ejmech.2018.08.092 (University of Lille, 2018).

Test: Inhibition of BACE1 in human SH-SY5Y cells harboring wild type APP695 assessed as reduction in amyloid beta (1 to 42) level after 24 hrs by ELISA method

SMILES	IC50 [µM]
Oc1c(CN2CCCC2)cc(Nc2ccnc3cc(Cl)ccc23)cc1CN1CCCC1	11.2
c1cc(-c2ccc(NCCCN3CCCCC3)c(OCCN3CCCCC3)c2)ccc1CN1CCCCC1	3.3
CN(C)Cc1ccccc1-c1ccc(NCCCN2CCCCC2)cc1	3.6
c1cc(CN2CCCCC2)cc(-c2ccc(NCCCN3CCCCC3)c(OCCN3CCCCC3)c2)c1	4.8
CN(C)Cc1ccccc1-c1ccc(NCCCN2CCCCC2)c(OCCC2CCCCC2)c1	2.8
c1ccc(-c2cccc(OCCN3CCCCC3)c2)cc1	13.7
c1ccc(-c2ccc(NCCCN3CCCCC3)c(OCCN3CCCCC3)c2)c(CN2CCCCC2)c1	4.1
c1ccc(-c2ccc(NCCCN3CCCCC3)c(OCCN3CCCCC3)c2)c(CN2CCOCC2)c1	4.2
CN(C)Cc1ccccc1-c1ccc(NCCCN2CCCCC2)c(OCCN2CCCCC2)c1	3.4
c1ccc(-c2ccc(NCCCN3CCCCC3)c(OCCN3CCCCC3)c2)cc1	4
CN(C)Cc1ccn(-c2ccc(NCCCN3CCCCC3)c(OCCN3CCCCC3)c2)c1	6.5

These reach a lower IC50. Values come first.

IC50 [µM]	SMILES
1.6	CN(C)Cc1ccccc1-c1ccc(NCCCCN2CCCCC2)c(OCCN2CCCCC2)c1
1.7	CN(C)Cc1ccc(-c2ccc(NCCCN3CCCCC3)c(OCCN3CCCCC3)c2)cc1
1.6	CN(C)Cc1ccccc1-c1ccc(NCCN2CCCCC2)c(OCCCCN2CCCCC2)c1
1.2	CN(C)Cc1ccccc1-c1ccc(NCCN2CCCCC2)c(OCCN2CCCCC2)c1
1.2	CN(C)Cc1ccccc1-c1cccc(OCCN2CCCCC2)c1
1.8	CN(C)Cc1ccccc1-c1ccc(NCCN2CCCCC2)c(OCCCN2CCCCC2)c1
2.1	CC(C)CN(CCCN1CCN(CCCNc2nc3ccccc3[nH]2)CC1)CC(C)C [(1H-Benzoimidazol-2-yl)-{3-[4-(3-diisobutylamino-propyl)-piperazin-1-yl]-propyl}-amine]
